Assays:
Assay type in all cases: in vivo
Details in all cases: 250 g/ha, evaluated after 13 days
[1] = system: Amaranthus palmeri (AMAPA); assay: Post-emergence herbicidal glasshouse test
Method: (§1) Seeds of a variety of test species are sown in standard soil in pots Amaranthus palmeri (AMAPA), Amaranthus retoflexus (AMARE), Echinochloa crus-galli (ECHCG), Ipomoea hederacea (IPOHE), Setaria faberi (SETFA). After cultivation for one day (pre-emergence) or after 8 days cultivation (post-emergence) under controlled conditions in a glasshouse (at 24/16 °C, day/night; 14 hours light; 65% humidity), the plants are sprayed with an aqueous spray solution derived from the formulation of the technical active ingredient in acetone/water (50:50) solution containing 0.5% Tween 20 (polyoxyethelyene sorbitan monolaurate, CAS RN 9005-64-5). Compounds are applied at 250 g/ha unless otherwise stated. The test plants are then grown in a glasshouse under controlled conditions in a glasshouse (at 24/16 °C, day/night; 14 hours light; 65% humidity) and watered twice daily. After 13 days for pre and post-emergence, the test is evaluated for the percentage damage caused to the plant. The biological activities are shown in the following table on a five-point scale (5=81-100%; 4=61-80%; 3=41-60%; 2=21-40%; 1=0-20%).

[2] = system: Amaranthus retoflexus (AMARE); assay: Post-emergence herbicidal glasshouse test
Method: as §1

[3] = system: Echinochloa crus-galli (ECHCG); assay: Post-emergence herbicidal glasshouse test
Method: as §1

[4] = system: Ipomoea hederacea (IPOHE); assay: Post-emergence herbicidal glasshouse test
Method: as §1

[5] = system: Amaranthus palmeri (AMAPA); assay: Pre-emergence herbicidal glasshouse test
Method: as §1

[6] = system: Amaranthus retoflexus (AMARE); assay: Pre-emergence herbicidal glasshouse test
Method: as §1

[7] = system: Echinochloa crus-galli (ECHCG); assay: Pre-emergence herbicidal glasshouse test
Method: as §1

[8] = system: Ipomoea hederacea (IPOHE); assay: Pre-emergence herbicidal glasshouse test
Method: as §1

Setaria faberi (SETFA) [9] = assay: Post-emergence herbicidal glasshouse test
Method: as §1

Setaria faberi (SETFA) [10] = assay: Pre-emergence herbicidal glasshouse test
Method: as §1

| Structure (SMILES) | percentage damage caused to the plant (five-point scale), AMAPA [1] | percentage damage caused to the plant (five-point scale), AMARE [2] | percentage damage caused to the plant (five-point scale), ECHCG [3] | percentage damage caused to the plant (five-point scale), IPOHE [4] | percentage damage caused to the plant (five-point scale), AMAPA [5] | percentage damage caused to the plant (five-point scale), AMARE [6] | percentage damage caused to the plant (five-point scale), ECHCG [7] | percentage damage caused to the plant (five-point scale), IPOHE [8] | percentage damage caused to the plant (five-point scale), SETFA (Setaria faberi (SETFA) [9]) | percentage damage caused to the plant (five-point scale), SETFA (Setaria faberi (SETFA) [10]) |
| --- | --- | --- | --- | --- | --- | --- | --- | --- | --- | --- |
| FC(F)c1cc(Cc2ncc(Cl)cn2)n(CCC2CCOC2)n1 (centres unmarked) [Compound 1.001] | 1 (0-20%) | 1 (0-20%) | 1 (0-20%) | 2 (21-40%) | 2 (21-40%) | 1 (0-20%) | 1 (0-20%) | 2 (21-40%) |  |  |
| FC(F)c1cc(Cc2ncc(Cl)cn2)n(CCCC(F)(F)F)n1 [Compound 1.002] | 1 (0-20%) | 2 (21-40%) | 1 (0-20%) | 2 (21-40%) | 5 (81-100%) | 5 (81-100%) | 1 (0-20%) | 3 (41-60%) |  |  |
| FC(F)c1cc(Cc2ncc(Cl)cn2)n(CCC2CC2)n1 [Compound 1.003] | 1 (0-20%) | 1 (0-20%) | 1 (0-20%) | 3 (41-60%) | 4 (61-80%) | 4 (61-80%) | 1 (0-20%) | 1 (0-20%) |  |  |
| FC(F)CCCn1nc(C(F)F)cc1Cc1ncc(Cl)cn1 [Compound 1.004] | 3 (41-60%) | 3 (41-60%) | 1 (0-20%) | 2 (21-40%) | 4 (61-80%) | 4 (61-80%) | 1 (0-20%) | 2 (21-40%) |  |  |
| FC(F)CCCn1nc(C(F)(F)F)cc1Cc1ncc(Cl)cn1 [Compound 1.005, 5-chloro-2-[[2-(4,4-difluorobutyl)-5-(trifluoromethyl)pyrazol-3-yl]methyl]pyrimidine] |  | 5 (81-100%) | 4 (61-80%) | 3 (41-60%) | 5 (81-100%) | 5 (81-100%) | 4 (61-80%) | 5 (81-100%) | 4 (61-80%) | 5 (81-100%) |
| FC(F)(F)CCCn1nc(C(F)(F)F)cc1Cc1ncc(Cl)cn1 [Compound 1.006] | 5 (81-100%) | 5 (81-100%) | 3 (41-60%) | 3 (41-60%) | 5 (81-100%) | 5 (81-100%) | 4 (61-80%) | 3 (41-60%) | 4 (61-80%) | 5 (81-100%) |
| FC(F)c1cc(Cc2ncc(Cl)cn2)n(CCC(F)(F)F)n1 [Compound 1.007] | 3 (41-60%) | 4 (61-80%) | 2 (21-40%) | 3 (41-60%) | 5 (81-100%) | 5 (81-100%) | 2 (21-40%) | 4 (61-80%) |  |  |
| FC(F)CCn1nc(C(F)F)cc1Cc1ncc(Cl)cn1 [Compound 1.008] | 3 (41-60%) | 3 (41-60%) | 1 (0-20%) | 4 (61-80%) | 5 (81-100%) | 5 (81-100%) | 4 (61-80%) | 3 (41-60%) | 1 (0-20%) | 4 (61-80%) |
| FC(F)(F)CCn1nc(C(F)(F)F)cc1Cc1ncc(Cl)cn1 [Compound 1.010] | 4 (61-80%) | 5 (81-100%) | 4 (61-80%) | 3 (41-60%) | 5 (81-100%) | 5 (81-100%) | 5 (81-100%) | 5 (81-100%) |  |  |
| CCCCn1nc(C(F)F)cc1Cc1ncc(Cl)cn1 [Compound 1.011] | 2 (21-40%) | 2 (21-40%) | 1 (0-20%) | 2 (21-40%) | 5 (81-100%) | 5 (81-100%) | 2 (21-40%) | 3 (41-60%) |  |  |
| CCCCn1nc(C(F)F)cc1Cc1ncc(Cl)cc1F [Compound 1.013] | 2 (21-40%) | 2 (21-40%) | 1 (0-20%) | 2 (21-40%) | 3 (41-60%) | 4 (61-80%) | 3 (41-60%) | 2 (21-40%) | 1 (0-20%) | 3 (41-60%) |
| Fc1cc(Cl)cnc1Cc1cc(C(F)(F)F)nn1CCC(F)(F)F [Compound 1.018] | 4 (61-80%) | 1 (0-20%) | 4 (61-80%) | 4 (61-80%) | 5 (81-100%) | 5 (81-100%) | 5 (81-100%) | 3 (41-60%) | 4 (61-80%) | 5 (81-100%) |
| CC(C)(C#N)CCCn1nc(C(F)(F)F)cc1Cc1ncc(Cl)cn1 [Compound 1.019] | 1 (0-20%) | 1 (0-20%) | 1 (0-20%) | 1 (0-20%) | 1 (0-20%) | 1 (0-20%) | 1 (0-20%) | 1 (0-20%) | 1 (0-20%) | 1 (0-20%) |
| CCCCn1nc(C(F)(F)Cl)cc1Cc1ncc(Cl)cn1 [Compound 1.020, 2-[[2-butyl-5-[chloro(difluoro)methyl]pyrazol-3-yl]methyl]-5-chloro-pyrimidine] | 4 (61-80%) | 5 (81-100%) | 2 (21-40%) | 2 (21-40%) | 5 (81-100%) | 5 (81-100%) | 4 (61-80%) | 2 (21-40%) | 1 (0-20%) | 4 (61-80%) |

Reference: patent publication US20260365634A1, “HERBICIDAL PYRAZOLE COMPOUNDS” (SYNGENTA CROP PROTECTION AG, priority 2022, published 2026)
